Read-outs that look alike come from different tables or passages of the source.
How the values were obtained:
[1] = system: T1, Nuclear Extract from HeLa Cells; test: HeLa nuclear extract HDAC activity inhibition; type: biochemical, human
T1 construct: 25 ng/μl Nuclear Extract from HeLa Cells: Prepared by high salt extraction of HeLa nuclei (human cervical cancer cell line)
Procedure: (§1) In Vitro Inhibitory Activity of Histone Deacetylase: Human Isoforms HDAC1, 2, 3, 4, 5, 6, 7, 8, 9, 10 and 11 and HeLa Cell Line Nuclear Extract (IC50 Data)
(§2) All HDAC assays were performed using acetylated AMC-labeled peptide substrate: • Substrate for isoforms HDAC1, 2, 3, 6, 10, 11 and HeLa nuclear extract assays: Acetylated fluorogenic peptide from p53 residues 379-382 (RHKKAc). • Substrate for isoforms HDAC 4, 5, 7, 9: Fluorogenic Boc-L-Lys(ε-trifluoroacetyl)-AMC. • Substrate for HDAC8 assays: Acetylated fluorogenic peptide from p53 residues 379-382 (RHKAcKAc).
[…] The reactions were carried out in a 96-well microplate for fluorometry in a 50 μl reaction volume. After the deacetylation reaction, Fluor-de-Lys-Developer (BioMol Cat. # KI-105) was added to each well to digest the deacetylated substrate, thus producing the fluorescent signal. The reaction was allowed to develop for 45 minutes at 30° C. with 5% CO2; then the fluorescent signal was measured with an excitation wavelength at 360 nm and an emission wavelength at 460 nm in a microplate-reading fluorometer (GeminiXS; Molecular Devices, Sunnyvale, Calif.). A curve of Deacetylated Standard (Biomol, Cat. # KI-142; made from 100 μM with 1:2 dilution and 10-doses, 6 μl) allowed the conversion of fluorescent signal into micromoles of deacetylated product. All experiments were performed in triplicate. IC50 was calculated by fitting the experimental data to a dose-response curve. DMSO was used as negative control; Trichostatin A (Biomol Cat. # GR-309) was used as positive control inhibitor.

[2] = target: T2, Human HDAC1 (Homo sapiens, UniProt Q13547); test: In vitro HDAC1 inhibition, fluorogenic peptide substrate; type: biochemical; settings: No preincubation; read-out: IC50 (μM) HDAC-1
T2 construct: Full length with C-terminal GST tag, MW=79.9 kDa; GST (C); purchased BioMol SE-456; host or cells: baculovirus / Sf9 cells
T2 sequence (Q13547 whole entry): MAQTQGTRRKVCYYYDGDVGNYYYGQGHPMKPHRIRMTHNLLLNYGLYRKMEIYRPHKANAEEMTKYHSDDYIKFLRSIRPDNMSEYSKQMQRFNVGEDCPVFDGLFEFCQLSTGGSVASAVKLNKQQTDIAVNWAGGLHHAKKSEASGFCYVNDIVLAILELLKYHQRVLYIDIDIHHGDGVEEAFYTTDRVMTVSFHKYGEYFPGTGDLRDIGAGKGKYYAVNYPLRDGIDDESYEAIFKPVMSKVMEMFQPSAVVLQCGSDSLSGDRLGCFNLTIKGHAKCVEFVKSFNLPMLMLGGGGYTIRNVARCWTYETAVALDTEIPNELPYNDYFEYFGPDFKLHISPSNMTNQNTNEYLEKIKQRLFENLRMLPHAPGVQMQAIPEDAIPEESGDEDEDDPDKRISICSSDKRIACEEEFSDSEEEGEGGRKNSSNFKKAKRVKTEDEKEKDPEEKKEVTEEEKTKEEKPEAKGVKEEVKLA
Procedure: as §1, §2
(§3) 50 μM of substrate peptide (see ‘substrate peptides’ section above) and an optimal concentration of the corresponding enzyme (see ‘enzymes’ section above) in the assay buffer and 1% final concentration of DMSO were incubated in the presence of gradient concentrations of inhibitors (10-dose IC50 mode with 3-fold serial dilution) at 30° C. for 2 h. The reactions were carried out in a 96-well microplate for fluorometry in a 50 μl reaction volume. After the deacetylation reaction, Fluor-de-Lys-Developer (BioMol Cat. # KI-105) was added to each well to digest the deacetylated substrate, thus producing the fluorescent signal. The reaction was allowed to develop for 45 minutes at 30° C. with 5% CO2; then the fluorescent signal was measured with an excitation wavelength at 360 nm and an emission wavelength at 460 nm in a microplate-reading fluorometer (GeminiXS; Molecular Devices, Sunnyvale, Calif.). A curve of Deacetylated Standard (Biomol, Cat. # KI-142; made from 100 μM with 1:2 dilution and 10-doses, 6 μl) allowed the conversion of fluorescent signal into micromoles of deacetylated product. All experiments were performed in triplicate. IC50 was calculated by fitting the experimental data to a dose-response curve. DMSO was used as negative control; Trichostatin A (Biomol Cat. # GR-309) was used as positive control inhibitor.

[3] = target: T3, Human HDAC2 (Homo sapiens, UniProt Q92769); test: In vitro HDAC2 inhibition, fluorogenic peptide substrate; type: biochemical; settings: read-out: IC50 (μM) HDAC-2
T3 construct: Full length with C-terminal His tag, MW=60 kDa; His (C); purchased BioMol SE-500; host or cells: baculovirus / Sf9 cells
T3 sequence (Q92769 whole entry): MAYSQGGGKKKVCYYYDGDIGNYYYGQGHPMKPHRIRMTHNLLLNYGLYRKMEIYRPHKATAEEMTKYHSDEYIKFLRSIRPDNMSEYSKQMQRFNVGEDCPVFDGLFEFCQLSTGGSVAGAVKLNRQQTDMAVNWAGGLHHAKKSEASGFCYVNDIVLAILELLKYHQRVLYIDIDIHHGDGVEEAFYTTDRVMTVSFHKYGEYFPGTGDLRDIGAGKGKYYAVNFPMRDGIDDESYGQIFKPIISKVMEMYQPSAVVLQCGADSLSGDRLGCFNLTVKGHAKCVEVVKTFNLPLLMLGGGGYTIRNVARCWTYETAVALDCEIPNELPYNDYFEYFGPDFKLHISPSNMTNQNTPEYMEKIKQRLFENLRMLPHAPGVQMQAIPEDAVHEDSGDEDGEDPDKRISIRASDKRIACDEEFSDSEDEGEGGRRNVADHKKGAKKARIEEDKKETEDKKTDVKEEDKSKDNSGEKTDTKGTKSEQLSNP
Procedure: as §1, §2, §3

[4] = target: T4, Human HDAC6 (Homo sapiens, UniProt Q9UBN7); test: In vitro HDAC6 inhibition, fluorogenic peptide substrate; type: biochemical; settings: No preincubation; read-out: IC50 (μM) HDAC-6
T4 construct: Full length with N-terminal GST tag, MW=159 kDa; GST (N); purchased BioMol SE-508; host or cells: baculovirus / Sf9 cells
T4 sequence (Q9UBN7 1-1215): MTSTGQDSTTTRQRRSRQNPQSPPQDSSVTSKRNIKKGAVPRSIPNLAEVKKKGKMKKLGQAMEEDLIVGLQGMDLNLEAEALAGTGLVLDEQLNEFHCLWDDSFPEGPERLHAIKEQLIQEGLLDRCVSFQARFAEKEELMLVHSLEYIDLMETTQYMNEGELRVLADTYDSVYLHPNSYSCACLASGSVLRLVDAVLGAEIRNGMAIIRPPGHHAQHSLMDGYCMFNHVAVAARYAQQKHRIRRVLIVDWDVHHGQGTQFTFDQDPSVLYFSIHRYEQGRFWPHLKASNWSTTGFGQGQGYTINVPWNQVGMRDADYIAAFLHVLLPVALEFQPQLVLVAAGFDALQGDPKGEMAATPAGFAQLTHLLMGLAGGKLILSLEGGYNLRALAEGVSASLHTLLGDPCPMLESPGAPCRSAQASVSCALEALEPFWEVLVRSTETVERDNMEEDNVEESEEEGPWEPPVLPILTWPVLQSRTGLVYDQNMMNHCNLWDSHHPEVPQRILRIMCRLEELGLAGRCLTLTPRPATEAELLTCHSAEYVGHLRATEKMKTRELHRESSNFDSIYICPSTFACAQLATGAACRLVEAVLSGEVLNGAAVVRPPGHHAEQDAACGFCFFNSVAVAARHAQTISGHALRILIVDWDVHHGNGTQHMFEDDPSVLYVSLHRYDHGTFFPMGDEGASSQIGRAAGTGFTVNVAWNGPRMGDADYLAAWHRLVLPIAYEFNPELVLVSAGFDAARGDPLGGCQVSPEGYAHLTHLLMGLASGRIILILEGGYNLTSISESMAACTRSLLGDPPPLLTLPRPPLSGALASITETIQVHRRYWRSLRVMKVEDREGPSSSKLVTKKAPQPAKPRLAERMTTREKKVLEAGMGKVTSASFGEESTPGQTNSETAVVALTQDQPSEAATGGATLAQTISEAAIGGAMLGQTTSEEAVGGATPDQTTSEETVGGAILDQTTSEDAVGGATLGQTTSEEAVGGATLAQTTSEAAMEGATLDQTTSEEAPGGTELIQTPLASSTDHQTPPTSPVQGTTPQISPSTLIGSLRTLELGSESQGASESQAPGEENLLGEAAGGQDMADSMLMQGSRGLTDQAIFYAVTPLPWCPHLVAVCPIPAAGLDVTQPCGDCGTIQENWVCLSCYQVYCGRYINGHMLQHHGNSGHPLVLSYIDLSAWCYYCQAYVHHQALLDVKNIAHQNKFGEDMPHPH
Procedure: as §1, §2, §3

[5] = target: T2, Human HDAC1; test: In vitro HDAC1 inhibition, fluorogenic peptide substrate; type: biochemical; settings: 4 h preincubation; read-out: IC50 (μM) HDAC-1

melting point [°C]	IC50 [1] [µM]	IC50 [2] [µM]	IC50 ([3]; No preincubation) [µM]	IC50 [4] [µM]	IC50 ([3]; 4 h preincubation) [µM]	IC50 [5] [µM]	IC50 ([1]; 4 h preincubation) [µM]	IC50 ([1]; No preincubation) [µM]	SMILES
101 to 102		1.26	1.7	13.2	0.079	1.48	3.99	4.68	Nc1ccc(-c2ccccc2)cc1NC(=O)CCCCCCNc1c2c(nc3ccccc13)CCCC2 [Example 15, N-(4-amino-[1,1′-biphenyl]-3-yl)-7-[(1,2,3,4-tetrahydroacridin-9-yl)amino]heptanamide]
75 to 76									Nc1ccc(-c2ccccc2)cc1NC(=O)CCCCCNc1c2c(nc3ccccc13)CCCC2 [Example 16, N-(4-Amino-[1,1′-biphenyl]-3-yl)-6-[(1,2,3,4-tetrahydroacridin-9-yl)amino]hexanamide]
53 to 54		250	188		76	118	73.6	84.1	Cc1cccc(-c2ccc(N)c(NC(=O)CCCCCCNc3c4c(nc5ccccc35)CCCC4)c2)c1 [Example 17, N-(4-amino-3′-methyl-[1,1′-biphenyl]-3-yl)-7-[(1,2,3,4-tetrahydroacridin-9-yl)amino]heptanamide]
55 to 56		46.7	> 50		65.9	48.1	25.5	429	CC(C)(C)c1ccc(-c2ccc(N)c(NC(=O)CCCCCCNc3c4c(nc5ccccc35)CCCC4)c2)cc1 [Example 18, N-{4-amino-4′-(tert-butyl)-[1,1′-biphenyl]-3-yl}-7-[(1,2,3,4-tetrahydroacridin-9-yl)amino]heptanamide]
100 to 101		> 50	> 50		72.7	139	39.3	17.7	Nc1ccc(-c2ccc3ccccc3c2)cc1NC(=O)CCCCCCNc1c2c(nc3ccccc13)CCCC2 [Example 19, N-[2-amino-5-(naphthalen-2-yl)phenyl]-7-[(1,2,3,4-tetrahydroacridin-9-yl)amino]heptanamide]
49 to 50		594	> 50		> 50	> 50	109	> 50	Nc1ncc(-c2ccccc2)cc1NC(=O)CCCCCCNc1c2c(nc3ccccc13)CCCC2 [Example 20, N-(2-amino-5-phenylpyridin-3-yl)-7-[(1,2,3,4-tetrahydroacridin-9-yl)amino]heptanamide]
		3.97	3.37		2.79	8.55	30.7	78.1	Nc1ccc(-c2cccnc2)cc1NC(=O)CCCCCCNc1c2c(nc3ccccc13)CCCC2 [Example 21, N-[2-amino-5-(pyridin-3-yl)phenyl]-7-[(1,2,3,4-tetrahydroacridin-9-yl)amino]heptanamide]

More lines, now with the values behind:

SMILES	melting point [°C]	IC50 [1] [µM]	IC50 [2] [µM]	IC50 ([3]; No preincubation) [µM]	IC50 [4] [µM]	IC50 ([3]; 4 h preincubation) [µM]	IC50 [5] [µM]	IC50 ([1]; 4 h preincubation) [µM]	IC50 ([1]; No preincubation) [µM]
O=C(CCCCCCNc1c2c(nc3c(O)cccc13)CCCC2)NO [Example 6, N-hydroxy-7-[(5-hydroxy-1,2,3,4-tetrahydroacridin-9-yl)amino]heptanamide]	73								
O=C(NO)c1ccc(CNc2c3c(nc4ccccc24)CCCC3)cc1 [Example 9, N-hydroxy-4-{[(1,2,3,4-tetrahydroacridin-9-yl)amino]methyl}benzamide]	204 to 205	0.9							
Cc1ccc(NC(=O)CCCCCCNc2c3c(nc4ccccc24)CCCC3)c(N)c1 [Example 12, N-(2-amino-4-methylphenyl)-7-[(1,2,3,4-tetrahydroacridin-9-yl)amino]heptanamide]	63 to 64		> 50	> 50	> 50				
Cc1ccc(N)c(NC(=O)CCCCCCNc2c3c(nc4ccccc24)CCCC3)c1 [Example 13, N-(2-amino-5-methylphenyl)-7-((1,2,3,4-tetrahydroacridin-9-yl)amino)heptanamide]	204 to 205		57.3	62.9	> 50	54.3	> 50		
CC(C)(C)c1ccc(N)c(NC(=O)CCCCCCNc2c3c(nc4ccccc24)CCCC3)c1 [Example 14, N-[2-amino-5-(tert-butyl)phenyl]-7-[(1,2,3,4-tetrahydroacridin-9-yl)amino]heptanamide]	75 to 76		> 50	> 50		> 50	> 50	> 50	> 50

— patent publication US20160122340A1, “HISTONE DEACETYLASE INHIBITORS BASED ON DERIVATIVES OF TRICYCLIC POLYHYDROACRIDINE AND ANALOGS POSSESSING FUSED SATURATED FIVE-AND-SEVEN-MEMBERED RINGS” (QUIMATRYX, S.L., priority 2013, published 2016)
